Source: PMC7898822, “RNA‐PROTACs: Degraders of RNA‐Binding Proteins” (Angewandte Chemie (International Ed. in English), 2020)

Tests used:
Lin28B [1] = assay: Western blot of Lin28B in K562 cells; format: cell-based, human; conditions: 48 h
Description: Finally, we tested RNA‐PROTACs for their ability to degrade their target in two cell lines: the embryonic NT2/D1 cell line, which expresses high levels of Lin28A, ^[13a] and K562 cells which express Lin28A and Lin28B. […] Suppression of the target was not quantitative, as is often observed from testing PROTAC reagents without an optimization of the targeting ligand, the linker and the E3 system. Furthermore, there was no statistical difference in the activity of the 7‐mer and 11‐mer reagents. […] The reagents had no discernible effect on cell toxicity (Figure S11). […] Finally, we co‐treated K562 cells with ORN3P1 and MG132, a reversible inhibitor of the 26S proteasome. […]
oligonucleotides ([…]) into 15N-labeled Lin28-ZnF12 in 10 mM HEPES pH 7.0, 1.5 mM β-mercaptoethanol, 0.15 mM ZnCl2 and monitored by 1H-15N-HSQC at 303K.
Fluorescence Polarization Assay. Fluorescence polarization titration assay was carried out by titrating Lin28_ZKD protein into FAM-labeled PreE-let-7 at a 10 nM final concentration and buffer (10 mM HEPES, 150 mM NaCl, 10 µM ZiCl2, pH 7,4). […] The fluorescence anisotropy was measured on a Spectra Max Paradigm multimode plate reader (Molecular Devices). The fluorescence polarization competition assay was carried out in a similar fashion, except compounds were titrated into buffer containing Lin28_ZKD and FAM-labeled preE-let-7. […]

Lin28_ZKD = target: T1, Lin28_ZKD (Homo sapiens, UniProt Q9H9Z2); assay: Fluorescence polarization competition assay (displacement of let7FAM from Lin28_ZKD); format: binding; conditions: competition FP, conjugate vs parent
T1 construct: construct encoding amino acids 124–186 of human Lin28; His6; made in house; host or cells: Escherichia coli BL21 (DE3) Codon+ (RIL)
T1 sequence (Q9H9Z2 124-186): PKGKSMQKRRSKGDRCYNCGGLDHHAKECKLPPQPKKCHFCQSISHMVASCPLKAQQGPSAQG
Procedure: Fluorescence Polarization Assay. Fluorescence polarization titration assay was carried out by titrating Lin28_ZKD protein into FAM-labeled PreE-let-7 at a 10 nM final concentration and buffer (10 mM HEPES, 150 mM NaCl, 10 µM ZiCl2, pH 7,4). The assay plate was briefly vortexed, and air bubbles were removed by spinning at 1000 rpm. The fluorescence anisotropy was measured on a Spectra Max Paradigm multimode plate reader (Molecular Devices). The fluorescence polarization competition […]
preE-let-7. The concentration of Lin28_ ZKD is kept at 40 nM, a value in the range of the dissociation constant of Lin28_ZKD and preE-let-7 determined through fluorescence polarization titration assay, whereas preE-let-7 concentration is kept constant at 10 nM. FP competitive binding assays were performed on 384-well plates (#3575, Corning) with a total well volume of 10 µL.
Fluorescence polarization readings were transferred into Prism 7.0 (GraphPad). All fluorescence polarization assays were repeated at least three times and the anisotropy values fitted using GraphPad Prism software using 1:1 binding/inhibition model. […]

K562 cells = assay: Confocal microscopy, intracellular localization in K562 cells; format: cell-based, human; conditions: FAM labelled ORN3P1, 1 µM, 24 h
Lin28A [2] = assay: Western blot of Lin28A in K562 cells; format: cell-based, human
Description: Finally, we tested RNA‐PROTACs for their ability to degrade their target in two cell lines: the embryonic NT2/D1 cell line, which expresses high levels of Lin28A, ^[13a] and K562 cells which express Lin28A and Lin28B. […] Finally, we co‐treated K562 cells with ORN3P1 and MG132, a reversible inhibitor of the 26S proteasome. […] In order to explore the versatility of RNA‐PROTACs with non peptide‐based VHL ligands, we conjugated small‐molecule VH032 ^[38] to ORN3 via an amino linker to yield ORN3VH032 (Figure S1). […]

Lin28B [3] = assay: Confocal microscopy, LIN28B level in K562 cells; format: cell-based, human; conditions: FAM labelled ORN3P1, 1 µM, 24 h
Lin28A [4] = assay: Confocal microscopy, LIN28A level in K562 cells; format: cell-based, human; conditions: FAM labelled ORN3P1, 1 µM, 24 h

CC[C@H](C)[C@H](NC(=O)[C@H](Cc1ccc(O)cc1)NC(=O)[C@@H]1C[C@@H](O)CN1C(=O)[C@H](C)NC(=O)[C@H](CC(C)C)NC(=O)CCCCCNC(=O)[C@@H](N)CSC1CC(=O)N(CCOP(=O)(S)OC[C@H]2O[C@@H](n3cnc4c(N)ncnc43)[C@H](OCCOC)[C@@H]2OP(=O)(S)OC[C@H]2O[C@@H](n3cnc4c(=O)[nH]c(N)nc43)[C@H](OCCOC)[C@@H]2OP(=O)(S)OC[C@H]2O[C@@H](n3cnc4c(=O)[nH]c(N)nc43)[C@H](OCCOC)[C@@H]2OP(=O)(S)OC[C@H]2O[C@@H](n3cnc4c(N)ncnc43)[C@H](OCCOC)[C@@H]2OP(=O)(S)OC[C@H]2O[C@@H](n3cnc4c(=O)[nH]c(N)nc43)[C@H](OCCOC)[C@@H]2OP(=O)(S)OC[C@H]2O[C@@H](n3cnc4c(N)ncnc43)[C@H](OCCOC)[C@@H]2OP(=O)(S)OC[C@H]2O[C@@H](n3cc(C)c(=O)[nH]c3=O)[C@H](OCCOC)[C@@H]2O)C1=O)C(=O)O (stereo partly shown) [ORN3P1]
effect on Lin28B (Lin28B [1]): little effect on Lin28B
competition for Lin28_ZKD relative to parent unconjugated oligonucleotides (Lin28_ZKD): competed slightly more strongly
intracellular presence by confocal microscopy (K562 cells): in the cytoplasm and nuclei of K562 cells
Lin28A suppression with MG132 co-treatment (Lin28A [2]; K562 cells co-treated with 100 nM MG132, 48 h): largely attenuated Lin28A suppression
suppression of Lin28A (Lin28A [2]; K562 cells, highest concentration, 48 h, western blot, three independent experiments): 50%
LIN28B by confocal microscopy (Lin28B [3]): relatively unaffected
LIN28A degradation by confocal microscopy (Lin28A [4]): LIN28A is degraded
